According to ChEMBL document CHEMBL1126420, “Design and synthesis of novel ligands for the 5-HT3 and the 5-HT4 receptor” (Bioorg Med Chem Lett, 1992):

What was measured:
[1] = biological target: T1, Serotonin 3 (5-HT3) receptor (Homo sapiens) (UniProt P46098+A5X5Y0+O95264+Q70Z44+Q8WXA8); experiment: (§1) Evaluated for the antagonistic activity against Serotonin 5-hydroxytryptamine 3 receptor in isolated perfused rabbit heart (RH); format: functional; conditions: Oryctolagus cuniculus; target entry is the homologue from another species
[2] = biological target: Serotonin 3 (5-HT3) receptor; experiment: Antagonistic activity against Serotonin 5-hydroxytryptamine 3 receptor of isolated guinea pig ileum (GPI); format: functional, tissue-based, Cavia porcellus
[3] = biological target: T1, Serotonin 3 (5-HT3) receptor (Homo sapiens); experiment: Evaluated for the antagonistic activity against Serotonin 5-hydroxytryptamine 3 receptor in isolated rabbit vagus nerve (RVN); format: functional, tissue-based; conditions: Oryctolagus cuniculus, target entry is the homologue from another species
[4] = biological target: Serotonin 3 (5-HT3) receptor; experiment: Antagonistic activity against Serotonin 5-hydroxytryptamine 3 receptor in isolated rabbit vagus nerve (RVN); format: functional, tissue-based, Oryctolagus cuniculus
[5] = biological target: 5-hydroxytryptamine receptor 4 (Cavia porcellus) (UniProt O70528); experiment: Agonistic activity against Serotonin 5-hydroxytryptamine 4 receptor in non-electrically stimulated guinea-pig ileum.; format: functional, tissue-based
5-hydroxytryptamine receptor 4 (Cavia porcellus), sequence (O70528 whole entry, the tested form may be a part): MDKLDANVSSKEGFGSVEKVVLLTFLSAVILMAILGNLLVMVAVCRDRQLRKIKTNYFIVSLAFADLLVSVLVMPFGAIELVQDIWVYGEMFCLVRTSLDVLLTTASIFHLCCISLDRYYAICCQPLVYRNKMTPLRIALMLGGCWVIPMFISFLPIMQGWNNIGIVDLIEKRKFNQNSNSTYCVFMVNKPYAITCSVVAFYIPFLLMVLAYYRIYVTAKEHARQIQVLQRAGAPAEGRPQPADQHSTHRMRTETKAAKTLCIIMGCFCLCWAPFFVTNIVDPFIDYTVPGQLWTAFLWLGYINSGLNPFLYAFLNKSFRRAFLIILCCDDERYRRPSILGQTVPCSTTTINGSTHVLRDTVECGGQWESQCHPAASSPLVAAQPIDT

[6] = biological target: 5-hydroxytryptamine receptor 4 (Cavia porcellus) (UniProt O70528); experiment: Agonistic activity against Serotonin 5-hydroxytryptamine 4 receptor in low frequency field stimulation of guinea-pig ileum (FSGPI).; format: functional, tissue-based
[7] = biological target: Serotonin 3 (5-HT3) receptor; experiment: as §1; format: functional, Oryctolagus cuniculus
[8] = biological target: T1, Serotonin 3 (5-HT3) receptor (Homo sapiens); experiment: Evaluated for the antagonistic activity against Serotonin 5-hydroxytryptamine 3 receptor in isolated guinea pig ileum (GPI); format: functional, tissue-based; conditions: Cavia porcellus, target entry is the homologue from another species
[9] = pKa value was determined; format: physicochemical
[10] = biological target: 5-hydroxytryptamine receptor 4 (Cavia porcellus) (UniProt O70528); conditions: Ileum
Description: pD2 value in the non-electrically stimulated guinea pig ileum

Rattus norvegicus = organism: Rattus norvegicus; experiment: Effective dose inhibited the Bezold-Jarisch reflex in rats was determined; format: functional
[11] = biological target: T2, Serotonin 3 receptor (5HT3) (Mus musculus) (UniProt Q9JHJ5+P23979); experiment: Compound was evaluated for binding to Serotonin 5-hydroxytryptamine 3 receptor in N1E cells using [3H]- -Tropisetron as radioligand; format: cell-based
T2 sequence (P23979 whole entry, looked up): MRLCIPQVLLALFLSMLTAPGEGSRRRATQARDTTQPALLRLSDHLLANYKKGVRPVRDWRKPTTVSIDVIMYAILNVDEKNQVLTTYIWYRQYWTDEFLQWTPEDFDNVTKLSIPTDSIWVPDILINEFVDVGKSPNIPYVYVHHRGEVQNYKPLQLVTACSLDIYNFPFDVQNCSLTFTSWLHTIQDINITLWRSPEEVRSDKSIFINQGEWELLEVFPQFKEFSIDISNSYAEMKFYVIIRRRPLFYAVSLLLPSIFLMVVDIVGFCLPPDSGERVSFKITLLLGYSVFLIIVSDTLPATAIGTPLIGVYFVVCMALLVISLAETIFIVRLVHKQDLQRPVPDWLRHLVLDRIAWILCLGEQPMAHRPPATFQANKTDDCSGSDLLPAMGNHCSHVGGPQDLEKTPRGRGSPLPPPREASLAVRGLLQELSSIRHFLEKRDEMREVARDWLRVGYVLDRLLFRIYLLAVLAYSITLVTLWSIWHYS
T2 sequence (Q9JHJ5 whole entry, looked up): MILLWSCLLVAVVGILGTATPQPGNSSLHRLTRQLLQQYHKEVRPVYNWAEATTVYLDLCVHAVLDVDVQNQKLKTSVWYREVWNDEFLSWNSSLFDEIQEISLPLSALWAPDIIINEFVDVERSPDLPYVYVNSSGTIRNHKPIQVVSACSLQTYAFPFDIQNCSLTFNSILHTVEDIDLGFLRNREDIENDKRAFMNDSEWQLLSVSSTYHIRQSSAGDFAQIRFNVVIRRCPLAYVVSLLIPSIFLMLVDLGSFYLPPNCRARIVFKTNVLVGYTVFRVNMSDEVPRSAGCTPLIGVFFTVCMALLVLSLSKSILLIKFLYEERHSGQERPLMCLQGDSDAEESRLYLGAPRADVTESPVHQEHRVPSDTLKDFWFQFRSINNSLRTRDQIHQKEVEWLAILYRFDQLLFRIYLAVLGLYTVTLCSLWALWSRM

[12] = biological target: 5-hydroxytryptamine receptor 4 (Cavia porcellus, UniProt O70528); experiment: Evaluated for the antagonistic activity against Serotonin 5-hydroxytryptamine 4 receptor in non-electrically stimulated guinea-pig ileum.; format: functional, tissue-based; conditions: read-out: pA2 (converted)
5-hydroxytryptamine receptor 4, sequence (O70528 whole entry): as the sequence (O70528 whole entry, the tested form may be a part) above

[13] = biological target: T2, Serotonin 3 receptor (5HT3) (Mus musculus); experiment: Compound was evaluated for binding to 5-hydroxytryptamine 3 receptor in N1E cells using [3H]- -Tropisetron as radioligand; format: cell-based
[14] = biological target: 5-hydroxytryptamine receptor 4 (Cavia porcellus) (UniProt O70528); experiment: Agonistic activity against Serotonin 5-HT4 receptor in low frequency field stimulation of guinea-pig ileum (FSGPI); format: functional, tissue-based
[15] = biological target: 5-hydroxytryptamine receptor 4 (Cavia porcellus) (UniProt O70528); conditions: Ileum; remark: listed apart in the source
Description: Evaluated for the agonistic activity against 5-HT4 receptor in non-electrically stimulated guinea-pig ileum.

[16] = biological target: 5-hydroxytryptamine receptor 4 (Cavia porcellus) (UniProt O70528); experiment: Evaluated for the agonistic activity against Serotonin 5-HT4 receptor in non-electrically stimulated guinea-pig ileum.; format: functional, tissue-based
[17] = biological target: Serotonin 3 (5-HT3) receptor; experiment: Evaluated for the antagonistic activity against 5-hydroxytryptamine 3 receptor in isolated perfused rabbit heart (RH); format: functional, Oryctolagus cuniculus
[18] = biological target: Serotonin 3 (5-HT3) receptor; experiment: Evaluated for the antagonistic activity against 5-hydroxytryptamine 3 receptor in isolated rabbit vagus nerve (RVN); format: functional, tissue-based, Oryctolagus cuniculus

## O=C(CC1CC2CCC(C1)N2)c1c[nH]c2cc(O)ccc12 (configuration not stated)
[1]
  pD2: 6
[2]
  pA2: 6
[3]
  pD2: 7

## Nc1c(Cl)cc(C(=O)NC2CCN3CCCC2C3)c2nsnc12 (configuration not stated)
[2]
  pA2: 6.8
[4]
  pA2: 7.7
[5]
  pD2: 6
[6]
  pD2: 7.2

## COc1cc(N)c(Cl)cc1C(=O)N[C@H]1CCN2CCC[C@@H]1C2
[7]
  pA2: 8.6
[5]
  pD2: 5.7
[6]
  pD2: 7.1

## Nc1c(Cl)cc(C(=O)NC2CN3CCC2CC3)c2nsnc12 (configuration not stated)
[2]
  pA2: 7.7
[4]
  pA2: 8.9
[5]
  pD2: 5.5
[6]
  pD2: 5.8

## NCCc1ccnc2ccc(O)cc12
[3]
  pD2: 5.8
[8]
  pD2: 4.5

## NCCC1CCCc2ccc(O)cc21 (configuration not stated)
[1]
  pD2: 5.7
[3]
  pD2: 6
[8]
  pD2: 5.2

## CN1[C@@H]2CC[C@H]1C[C@@H](OC(=O)c1c[nH]c3ccccc13)C2 [TROPISETRON]
[9]
  pKa: 8.4
[10]
  pD2: 5.7
Rattus norvegicus
  ED50: 0.72 µg/kg
[11]
  pKD: 9.1
[12]
  Kb: 2000 nM

## COc1ccc2[nH]ccc2c1C(=O)NC1CN2CCC1CC2 (configuration not stated)
[2]
  pA2: 7.2
[5]
  pD2: 7.1
[6]
  pD2: 6.6

## Nc1c(Cl)cc(C(=O)NC2CN3CCC2CC3)c2ncccc12 (configuration not stated)
[2]
  pA2: 7.9
[4]
  pA2: 9
[5]
  pD2: 6
[6]
  pD2: 7.2

## Nc1c(Cl)cc(C(=O)NC2CCN3CCCC2C3)c2ncccc12 (configuration not stated)
[2]
  pA2: 6.7
[5]
  pD2: 7.1
[6]
  pD2: 7.5

## Cc1nccn1CC1CCc2c(c3ccccc3n2C)C1=O (configuration not stated)
[13]
  pKD: 7.7
[6]
  pD2: 5.1

## NCCc1c[nH]c2ccc(O)cc12
[14]
  pD2: 7
[15]
  pD2: 7.9

## CCN(CC)Cc1coc(-c2cc(Cl)c(N)cc2OC)n1
[14]
  pD2: 6.1
[16]
  pD2: 6

## CCN(CC)CCN1CCc2cc(N)c(Cl)cc2C1=O
[14]
  pD2: 5.2
[16]
  pD2: 5.1

## CCN(CC)CCOC(=O)c1cc(Cl)c(N)cc1OC
[16]
  pD2: 7

## CN1C2CC(OC(=O)c3c[nH]c4ccccc34)CC1C1OC12 (configuration not stated)
[17]
  pA2: 11
[2]
  pA2: 8.8
[9]
  pKa: 6.64
[11]
  pKD: 9.2
[18]
  pA2: 10.6
[6]
  pD2: 0
[12]
  Kb: 501 nM

## Cc1[nH]c2ccc(O)cc2c1CCN
[1]
  pD2: 5.5
[3]
  pD2: 5.6
[8]
  pD2: 5.1

## N/C(Cc1c[nH]c2ccc(O)cc12)=N\CCc1c[nH]c2ccc(O)cc12
[14]
  pD2: 6.3

## COc1cc(N)c(Cl)cc1C(=O)N[C@H]1CCN(CCCOc2ccc(F)cc2)C[C@H]1OC [CISAPRIDE]
[2]
  pA2: 7.2
[7]
  pA2: 7.1
[4]
  pA2: 6.5
[6]
  pD2: 6

## Cc1[nH]c2ccc(O)cc2c1CC(=N)NCCCN1CCCC1=O
[14]
  pD2: 5.8

## N#Cc1[nH]c2ccc(O)cc2c1CCN
[1]
  pD2: 4
[3]
  pD2: 7.2
[8]
  pD2: 5.4

## COc1cc(N)c(Cl)cc1C(=O)NC1CN2CCC1CC2 (configuration not stated)
[5]
  pD2: 5.9
[6]
  pD2: 6.2

## CCN(CC)CCNC(=O)c1cc(Cl)c(N)cc1OC [METOCLOPRAMIDE]
[2]
  pA2: 5.2
[7]
  pA2: 7.1
[6]
  pD2: 5.5
